Measured values from ChEMBL document CHEMBL3991601, “The target landscape of clinical kinase drugs” (Science, 2017).
Calls of active or inactive are those of the source.

Tests used:
[1] = biological target: T1, Serine/threonine-protein kinase NLK (Homo sapiens, UniProt Q9UBE8)
T1 sequence (Q9UBE8 whole entry): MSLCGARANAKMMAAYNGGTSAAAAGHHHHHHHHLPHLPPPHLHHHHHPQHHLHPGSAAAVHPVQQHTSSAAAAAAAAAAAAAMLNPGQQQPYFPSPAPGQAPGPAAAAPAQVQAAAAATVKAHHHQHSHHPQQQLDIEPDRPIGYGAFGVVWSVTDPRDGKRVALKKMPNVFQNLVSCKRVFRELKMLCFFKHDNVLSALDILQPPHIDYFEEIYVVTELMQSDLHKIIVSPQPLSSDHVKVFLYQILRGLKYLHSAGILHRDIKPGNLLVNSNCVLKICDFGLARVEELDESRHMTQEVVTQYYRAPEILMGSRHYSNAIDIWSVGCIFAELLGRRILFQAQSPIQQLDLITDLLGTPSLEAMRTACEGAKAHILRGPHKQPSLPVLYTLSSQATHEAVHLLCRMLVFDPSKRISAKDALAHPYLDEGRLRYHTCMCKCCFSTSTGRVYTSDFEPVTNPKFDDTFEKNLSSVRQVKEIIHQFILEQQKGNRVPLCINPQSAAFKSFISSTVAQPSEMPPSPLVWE

[2] = biological target: Cyclin-dependent kinase 4 (Homo sapiens, UniProt P11802)
[3] = biological target: Eukaryotic translation initiation factor 2-alpha kinase 1 (Homo sapiens, UniProt Q9BQI3)
[4] = biological target: T2, Probable ATP-dependent RNA helicase DDX6 (Homo sapiens, UniProt P26196)
T2 sequence (P26196 whole entry): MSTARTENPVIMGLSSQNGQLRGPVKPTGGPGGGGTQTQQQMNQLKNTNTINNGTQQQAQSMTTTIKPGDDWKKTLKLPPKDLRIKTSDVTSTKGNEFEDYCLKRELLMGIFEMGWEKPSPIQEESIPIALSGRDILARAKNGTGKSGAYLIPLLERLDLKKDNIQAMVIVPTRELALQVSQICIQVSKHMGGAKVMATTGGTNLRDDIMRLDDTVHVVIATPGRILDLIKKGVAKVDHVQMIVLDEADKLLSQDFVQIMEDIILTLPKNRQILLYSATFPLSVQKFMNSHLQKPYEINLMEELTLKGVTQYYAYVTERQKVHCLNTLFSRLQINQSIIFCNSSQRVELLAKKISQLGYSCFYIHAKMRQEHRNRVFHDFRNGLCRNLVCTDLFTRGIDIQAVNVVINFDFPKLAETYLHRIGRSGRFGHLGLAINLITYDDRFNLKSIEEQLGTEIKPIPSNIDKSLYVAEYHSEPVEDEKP

[5] = biological target: Protein-tyrosine kinase 2-beta (Homo sapiens, UniProt Q14289)
Activated CDC42 kinase 1 = Activated CDC42 kinase 1 (Homo sapiens, UniProt Q07912)
[6] = biological target: Serine/threonine-protein kinase pim-1 (Homo sapiens, UniProt P11309)
[7] = biological target: T3, Acyl-CoA dehydrogenase family member 11 (Homo sapiens, UniProt Q709F0)
T3 sequence (Q709F0 whole entry): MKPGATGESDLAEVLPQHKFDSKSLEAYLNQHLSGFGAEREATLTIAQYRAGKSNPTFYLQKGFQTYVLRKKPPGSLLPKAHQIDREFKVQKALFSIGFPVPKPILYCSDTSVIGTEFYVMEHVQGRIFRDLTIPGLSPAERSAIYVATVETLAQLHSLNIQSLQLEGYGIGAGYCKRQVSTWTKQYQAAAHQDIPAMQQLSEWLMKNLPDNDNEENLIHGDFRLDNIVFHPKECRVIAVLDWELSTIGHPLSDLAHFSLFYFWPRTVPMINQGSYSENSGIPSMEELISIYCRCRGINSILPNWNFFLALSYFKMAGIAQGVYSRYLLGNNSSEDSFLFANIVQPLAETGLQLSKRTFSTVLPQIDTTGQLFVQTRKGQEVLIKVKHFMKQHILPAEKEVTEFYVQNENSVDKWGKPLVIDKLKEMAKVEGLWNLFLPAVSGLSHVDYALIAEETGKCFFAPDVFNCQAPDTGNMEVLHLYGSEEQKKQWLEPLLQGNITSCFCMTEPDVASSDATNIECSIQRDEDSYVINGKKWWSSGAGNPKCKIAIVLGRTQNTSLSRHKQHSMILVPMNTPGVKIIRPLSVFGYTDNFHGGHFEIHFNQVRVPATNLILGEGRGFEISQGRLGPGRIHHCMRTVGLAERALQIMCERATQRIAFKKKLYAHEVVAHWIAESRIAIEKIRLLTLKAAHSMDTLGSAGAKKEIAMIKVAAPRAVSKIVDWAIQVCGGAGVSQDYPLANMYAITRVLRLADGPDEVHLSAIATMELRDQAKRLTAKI
Further: in the data inactive means no Kd found up to 30 µM.

Eukaryotic translation initiation factor 2-alpha kinase 1, sequence (Q9BQI3 whole entry): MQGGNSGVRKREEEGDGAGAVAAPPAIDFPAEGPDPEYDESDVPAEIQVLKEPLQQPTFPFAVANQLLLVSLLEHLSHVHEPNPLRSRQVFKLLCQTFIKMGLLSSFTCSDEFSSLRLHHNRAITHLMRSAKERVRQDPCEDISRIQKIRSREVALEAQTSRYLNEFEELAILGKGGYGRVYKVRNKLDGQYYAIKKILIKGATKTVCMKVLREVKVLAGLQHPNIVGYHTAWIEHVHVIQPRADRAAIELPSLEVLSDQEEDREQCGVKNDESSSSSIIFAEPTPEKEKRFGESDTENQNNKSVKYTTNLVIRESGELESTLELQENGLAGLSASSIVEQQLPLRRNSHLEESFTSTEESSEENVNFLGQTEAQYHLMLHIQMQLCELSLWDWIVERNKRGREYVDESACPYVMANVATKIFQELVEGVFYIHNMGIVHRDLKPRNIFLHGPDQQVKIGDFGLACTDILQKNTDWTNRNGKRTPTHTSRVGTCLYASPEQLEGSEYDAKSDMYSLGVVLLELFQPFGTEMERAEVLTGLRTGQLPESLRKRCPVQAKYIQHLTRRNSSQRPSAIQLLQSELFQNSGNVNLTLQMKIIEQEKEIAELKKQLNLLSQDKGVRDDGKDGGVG
Activated CDC42 kinase 1, sequence (Q07912 whole entry): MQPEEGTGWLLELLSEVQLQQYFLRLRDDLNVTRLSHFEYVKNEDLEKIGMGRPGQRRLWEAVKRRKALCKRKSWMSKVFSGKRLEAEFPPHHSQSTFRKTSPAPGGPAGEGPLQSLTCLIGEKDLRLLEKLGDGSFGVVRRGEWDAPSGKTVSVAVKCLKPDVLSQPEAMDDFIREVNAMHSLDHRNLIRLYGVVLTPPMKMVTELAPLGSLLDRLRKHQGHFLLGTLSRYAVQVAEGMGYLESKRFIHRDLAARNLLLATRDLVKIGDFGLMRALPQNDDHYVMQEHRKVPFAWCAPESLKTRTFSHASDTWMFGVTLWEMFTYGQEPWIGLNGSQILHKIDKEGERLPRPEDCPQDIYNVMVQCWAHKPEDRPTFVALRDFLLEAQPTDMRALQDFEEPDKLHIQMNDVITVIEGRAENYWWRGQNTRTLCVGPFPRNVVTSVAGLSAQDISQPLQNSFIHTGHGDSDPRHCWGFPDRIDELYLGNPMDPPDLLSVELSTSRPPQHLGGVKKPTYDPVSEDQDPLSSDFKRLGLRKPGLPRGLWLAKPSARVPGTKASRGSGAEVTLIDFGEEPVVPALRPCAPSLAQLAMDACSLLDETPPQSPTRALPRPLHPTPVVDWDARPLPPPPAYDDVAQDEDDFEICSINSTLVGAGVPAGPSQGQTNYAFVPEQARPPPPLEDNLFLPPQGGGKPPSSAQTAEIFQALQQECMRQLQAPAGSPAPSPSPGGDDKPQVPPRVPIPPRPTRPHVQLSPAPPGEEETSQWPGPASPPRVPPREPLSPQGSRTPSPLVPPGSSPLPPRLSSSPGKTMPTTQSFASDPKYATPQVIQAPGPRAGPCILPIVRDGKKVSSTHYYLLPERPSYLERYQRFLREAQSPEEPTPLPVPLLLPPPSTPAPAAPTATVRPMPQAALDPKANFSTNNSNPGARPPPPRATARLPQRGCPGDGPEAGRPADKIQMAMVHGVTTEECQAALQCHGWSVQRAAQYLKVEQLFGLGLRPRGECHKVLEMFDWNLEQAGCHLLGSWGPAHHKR
Serine/threonine-protein kinase pim-1, sequence (P11309 whole entry): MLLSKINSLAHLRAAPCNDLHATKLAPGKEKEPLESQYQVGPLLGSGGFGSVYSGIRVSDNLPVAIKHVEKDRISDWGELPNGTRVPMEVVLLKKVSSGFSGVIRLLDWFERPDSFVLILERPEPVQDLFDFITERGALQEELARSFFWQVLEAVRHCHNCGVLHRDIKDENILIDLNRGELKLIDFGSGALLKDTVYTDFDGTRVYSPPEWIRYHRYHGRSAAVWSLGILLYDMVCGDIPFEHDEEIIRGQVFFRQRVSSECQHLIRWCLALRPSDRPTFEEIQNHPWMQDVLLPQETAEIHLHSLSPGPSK
Cyclin-dependent kinase 4, sequence (P11802 whole entry): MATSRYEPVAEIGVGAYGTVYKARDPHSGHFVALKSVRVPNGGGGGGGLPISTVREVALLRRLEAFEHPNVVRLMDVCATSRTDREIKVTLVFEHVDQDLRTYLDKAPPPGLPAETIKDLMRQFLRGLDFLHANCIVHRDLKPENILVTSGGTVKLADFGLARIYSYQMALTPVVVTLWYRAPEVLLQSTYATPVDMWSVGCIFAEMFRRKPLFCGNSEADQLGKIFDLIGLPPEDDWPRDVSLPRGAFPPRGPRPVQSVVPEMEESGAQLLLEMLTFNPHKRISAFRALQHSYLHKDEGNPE
Protein-tyrosine kinase 2-beta, sequence (Q14289 whole entry): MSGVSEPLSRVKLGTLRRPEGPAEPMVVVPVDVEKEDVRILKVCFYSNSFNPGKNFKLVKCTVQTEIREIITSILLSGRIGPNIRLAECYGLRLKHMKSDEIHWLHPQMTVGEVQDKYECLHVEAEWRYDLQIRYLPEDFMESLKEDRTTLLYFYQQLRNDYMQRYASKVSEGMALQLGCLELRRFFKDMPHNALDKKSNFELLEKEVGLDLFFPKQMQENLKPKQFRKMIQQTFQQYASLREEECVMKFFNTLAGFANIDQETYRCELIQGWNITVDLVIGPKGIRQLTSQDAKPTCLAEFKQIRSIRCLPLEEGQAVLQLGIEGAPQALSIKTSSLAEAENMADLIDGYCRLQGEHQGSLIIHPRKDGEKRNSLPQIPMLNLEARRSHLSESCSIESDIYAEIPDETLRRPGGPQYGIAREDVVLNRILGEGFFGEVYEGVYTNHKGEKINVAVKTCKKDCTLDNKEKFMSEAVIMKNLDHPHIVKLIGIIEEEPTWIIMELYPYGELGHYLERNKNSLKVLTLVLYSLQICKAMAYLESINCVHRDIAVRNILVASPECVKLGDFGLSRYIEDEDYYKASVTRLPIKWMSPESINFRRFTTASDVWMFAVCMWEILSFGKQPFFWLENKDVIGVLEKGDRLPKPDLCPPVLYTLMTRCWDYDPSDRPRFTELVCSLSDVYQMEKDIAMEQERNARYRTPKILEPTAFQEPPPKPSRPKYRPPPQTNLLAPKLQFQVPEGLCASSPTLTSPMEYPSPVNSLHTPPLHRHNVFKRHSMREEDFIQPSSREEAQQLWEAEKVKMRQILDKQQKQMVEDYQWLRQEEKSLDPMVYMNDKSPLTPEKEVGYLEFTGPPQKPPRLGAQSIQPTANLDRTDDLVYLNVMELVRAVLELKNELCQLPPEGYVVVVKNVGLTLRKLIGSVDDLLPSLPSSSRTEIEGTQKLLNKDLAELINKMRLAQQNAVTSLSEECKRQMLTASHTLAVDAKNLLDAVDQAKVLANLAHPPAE

Row | Kd [1] | Kd [2] | Kd [3] | Kd [4] | Kd [5] | Kd (Activated CDC42 kinase 1) | Kd [6] | Kd [7] | SMILES
1 | > 30 µM (inactive) | > 30 µM (inactive) | > 30 µM (inactive) | > 30 µM (inactive) | > 30 µM (inactive) | > 30 µM (inactive) | > 30 µM (inactive) |  | C[C@@H](Oc1cc(C(=O)Nc2ccc(C(=O)N3CCN(C)CC3)cc2)nnc1N)c1c(Cl)ccc(F)c1Cl
2 | > 30 µM (inactive) | > 30 µM (inactive) | > 30 µM (inactive) | > 30 µM (inactive) | > 30 µM (inactive) | > 30 µM (inactive) | > 30 µM (inactive) |  | Nc1ncnc2c1c(-c1cccc(OCc3ccccc3)c1)cn2[C@H]1C[C@@H](CN2CCC2)C1 [AEW-541]
3 | > 30 µM (inactive) | > 30 µM (inactive) | > 30 µM (inactive) | > 30 µM (inactive) | > 30 µM (inactive) |  |  | > 30 µM (inactive) | COc1cc(Nc2ncc3c(n2)-c2ccc(Cl)cc2C(c2c(F)cccc2OC)=NC3)ccc1C(=O)O [ALISERTIB]
4 | > 30 µM (inactive) | > 30 µM (inactive) | > 30 µM (inactive) | > 30 µM (inactive) | > 30 µM (inactive) | > 30 µM (inactive) | > 30 µM (inactive) |  | C=CC(=O)Nc1cc2c(Nc3ccc(F)c(Cl)c3)ncnc2cc1C#CC(C)(C)N1CCN(C)CC1 [AV-412 FREE BASE]
5 |  |  |  | > 30 µM (inactive) |  |  |  | > 30 µM (inactive) | CNC(=O)c1ccccc1Sc1ccc2c(/C=C/c3ccccn3)n[nH]c2c1 [AXITINIB]
6 | > 30 µM (inactive) | > 30 µM (inactive) | > 30 µM (inactive) | > 30 µM (inactive) | > 30 µM (inactive) | > 30 µM (inactive) | > 30 µM (inactive) |  | Cc1nc2cc(-n3ncc(C(=O)c4cc5ccccc5[nH]4)c3N)ccc2[nH]1 [FGFR INHIBITOR DEBIO 1347]
7 |  |  |  | > 30 µM (inactive) |  |  |  | > 30 µM (inactive) | C[C@@H](Oc1cc(-n2cnc3ccc(CN4CCN(C)CC4)cc32)sc1C(N)=O)c1ccccc1C(F)(F)F [GSK-461364]
8 | > 30 µM (inactive) |  | > 30 µM (inactive) | > 30 µM (inactive) | > 30 µM (inactive) | 0.9 µM (active) | > 30 µM (inactive) | > 30 µM (inactive) | CNC(=O)c1nn(C)c2c1C(C)(C)Cc1cnc(Nc3ccc(N4CCN(C)CC4)cc3)nc1-2 [MILCICLIB]
9 | > 30 µM (inactive) | > 30 µM (inactive) | > 30 µM (inactive) | > 30 µM (inactive) | > 30 µM (inactive) | > 30 µM (inactive) | > 30 µM (inactive) |  | CN(C[C@@H]1COCCO1)S(=O)(=O)Nc1ccc2ccc3ncc(-c4cnn(C)c4)cc3c(=O)c2c1 [MK-2461]
10 | > 30 µM (inactive) |  | > 30 µM (inactive) | > 30 µM (inactive) | > 30 µM (inactive) | > 30 µM (inactive) | > 30 µM (inactive) | > 30 µM (inactive) | FC(F)(F)c1ccc(/C=C/c2nc(COc3ccc(CCCCn4ccnn4)cc3)co2)cc1 [MUBRITINIB]
11 | > 30 µM (inactive) | > 30 µM (inactive) | > 30 µM (inactive) | > 30 µM (inactive) | > 30 µM (inactive) | > 30 µM (inactive) |  | > 30 µM (inactive) | COc1ncc(-c2ccc3nccc(-c4ccnnc4)c3c2)cc1NS(=O)(=O)c1ccc(F)cc1F [OMIPALISIB]
12 | > 30 µM (inactive) | > 30 µM (inactive) | > 30 µM (inactive) | > 30 µM (inactive) |  |  |  | > 30 µM (inactive) | Cc1[nH]c(/C=C2\C(=O)Nc3ccccc32)c(C)c1CCC(=O)O [ORANTINIB]
13 | > 30 µM (inactive) | > 30 µM (inactive) | 3.57 µM (active) | > 30 µM (inactive) |  |  |  | > 30 µM (inactive) | NC(=O)c1c(OCc2c(F)cc(Br)cc2F)nsc1NC(=O)NCCCCN1CCCC1 [OSI-632]
14 | > 30 µM (inactive) | > 30 µM (inactive) | > 30 µM (inactive) | > 30 µM (inactive) |  |  |  | > 30 µM (inactive) | CC(=O)NCC(=O)N1[C@@H]2CC[C@H]1c1ccc(Nc3ncc(C(F)(F)F)c(NC4CCC4)n3)cc12 [PF-03814735]
15 |  |  |  | > 30 µM (inactive) |  |  |  | > 30 µM (inactive) | O=C(NOCCO)c1cc(CN2OCCCC2=O)c(F)c(F)c1Nc1ccc(I)cc1F [RO-4987655]
16 |  |  |  | > 30 µM (inactive) |  |  |  | > 30 µM (inactive) | N#CC[C@H](C1CCCC1)n1cc(-c2ncnc3[nH]ccc23)cn1 [RUXOLITINIB]
17 | > 30 µM (inactive) | > 30 µM (inactive) | > 30 µM (inactive) |  | > 30 µM (inactive) | > 30 µM (inactive) | > 30 µM (inactive) |  | C[C@@H](NC(=O)c1ncnc(N)c1Cl)c1ncc(C(=O)Nc2cc(C(F)(F)F)c(Cl)cn2)s1 [TOVORAFENIB]
18 | > 30 µM (inactive) | > 30 µM (inactive) | > 30 µM (inactive) | > 30 µM (inactive) | > 30 µM (inactive) | > 30 µM (inactive) | > 30 µM (inactive) |  | Cn1ncc(Cl)c1-c1cc(C(=O)N[C@H](CN)Cc2ccc(F)c(F)c2)oc1Cl [UPROSERTIB]

Row | SMILES | Kd [1] | Kd [2] | Kd [3] | Kd [4] | Kd [5] | Kd (Activated CDC42 kinase 1) | Kd [6] | Kd [7]
19 | CC(=O)c1cnc2ccc(-c3cc(Cl)c(O)c(Cl)c3)nc2c1N[C@H]1CC[C@H](CN(C)C)CC1 | 0.024 µM (active) | > 30 µM (inactive) | > 30 µM (inactive) | > 30 µM (inactive) | 0.03 µM (active) | > 30 µM (inactive) | 0.014 µM (active) | 
20 | COc1cc([C@@H]2c3cc4c(cc3[C@H](O)[C@H]3COC(=O)[C@@H]23)OCO4)cc(OC)c1OC [AXL-1717] | > 30 µM (inactive) | > 30 µM (inactive) | > 30 µM (inactive) | > 30 µM (inactive) | > 30 µM (inactive) | > 30 µM (inactive) | > 30 µM (inactive) | 
21 | CC(C)(C)c1nc(-c2cccc(NS(=O)(=O)c3c(F)cccc3F)c2F)c(-c2ccnc(N)n2)s1 [DABRAFENIB] | > 30 µM (inactive) |  |  | > 30 µM (inactive) | > 30 µM (inactive) |  |  | > 30 µM (inactive)
22 | Cn1cc(C2=C(c3cn(C4CCN(Cc5ccccn5)CC4)c4ccccc34)C(=O)NC2=O)c2ccccc21 [ENZASTAURIN] |  |  |  | > 30 µM (inactive) |  |  |  | 
23 | O=C(Nc1cc(C(F)(F)F)cc(C(F)(F)F)c1)c1cc(Cl)ccc1O [IMD-0354] | > 30 µM (inactive) | > 30 µM (inactive) | > 30 µM (inactive) | > 30 µM (inactive) | > 30 µM (inactive) | > 30 µM (inactive) |  | > 30 µM (inactive)
24 | CCCCCCCCCCCCCCCCCCOP(=O)([O-])OC1CC[N+](C)(C)CC1 [PERIFOSINE] | > 30 µM (inactive) | > 30 µM (inactive) | > 30 µM (inactive) | > 30 µM (inactive) | > 30 µM (inactive) | > 30 µM (inactive) | > 30 µM (inactive) | 
25 | CNC(=O)c1cc(Oc2ccc(NC(=O)Nc3cc(C(C)(C)C)nn3-c3ccc4ncccc4c3)c(F)c2)ccn1 [REBASTINIB] | > 30 µM (inactive) |  |  | > 30 µM (inactive) | 9.24 µM (active) | > 30 µM (inactive) | > 30 µM (inactive) | > 30 µM (inactive)
